What all share (test): Cell viability assay (CELLCOUNTING-LITE)
What all share (assay type): cell-based

One assay has as its system KB. The method, then: (§1) Cancerous cells (5,000/well) were seeded in a culture media in a 96-well flat-bottom plate. A compound was prepared by a 3-fold serial dilution and added into each cell solutions. The cells were incubated for 4 or 5 days at 37° C. under 5% CO2. CELLCOUNTING-LITE was added to each well, mixed, and incubated for 10 min at room temperature. The solution in each cell was transferred to a 96-well white opaque plate for reading.

The test system of another assay is A375. The procedure:
as §1

Another assay deals with Raji. The method, then:
as §1

Another assay relates to HT29. The method, then: as §1
Another assay concerns T47D. The procedure: as §1
In the next assay the test system is H226. The method, then:
as §1

The subject of the next assay is H322. The method, then:
as §1

Another assay concerns RS4; 11. The procedure: as §1
The test system of a further assay is MV4; 11. The method, then:
as §1

The next assay has as its system Hut78. The method, then:
as §1

The next assay concerns N87. The method, then:
as §1

The test system of the next assay is Jurkat. The procedure: as §1
For another assay, the system named is Skov-3. The method, then:
as §1

The test system of the next assay is Ramos. The procedure:
as §1

The next assay deals with A431. The method, then: as §1
In the next assay the test system is MCF7. The procedure: as §1
The test system of the next assay is ASPC-1. The method, then: as §1
Setting [1] is: N87 cells, incubated for 4 or 5 days, Table 1, read-out: IC50.

Read-outs that look alike come from different tables or passages of the source. Numbered stars: 1 amine (or outer) side, 2 acyl side, 3 side chain; on linkers, the order of the positions; unused ones are H or OH. Square brackets hold non-standard residues; d marks the D form. Peptide text beside a SMILES is read from it. * marks the point of attachment. Exatecan = CC[C@@]1(O)C(=O)OCc2c1cc1n(c2=O)Cc2c-1nc1cc(F)c(C)c3c1c2[C@@H](N*)CC3; Hexanoyl(6-maleimido) = O=C1C=CC(=O)N1CCCCCC(=O)*; NHCH2OCH2CO = O=C(COCN[*:1])[*:2]

Regarding `CC[C@@]1(O)C(=O)OCc2c1cc1n(c2=O)Cc2c-1nc1cc(F)c(C)c3c1c2[C@@H](NC(=O)COCNC(=O)CNC(=O)[C@H](Cc1ccccc1)NC(=O)CNC(=O)CNC(=O)CCCCCN1C(=O)C=CC1=O)CC3` [Deruxtecan, reference compound] ({Hexanoyl(6-maleimido)}-GGFG[NHCH2OCH2CO]-Exatecan), the half-maximal inhibitory concentration (IC50) is 7.2 nM in the assay on KB (KB cells, incubated for 4 or 5 days, Table 1, read-out: IC50); 3.6 nM with A375 (A375 cells, incubated for 4 or 5 days, Table 1, read-out: IC50); 0.42 nM in the assay with Raji (Raji cells, incubated for 4 or 5 days, Table 1, read-out: IC50); 13 nM with HT29 (HT29 cells, incubated for 4 or 5 days, Table 1, read-out: IC50); 1.9 nM with T47D (T47D cells, incubated for 4 or 5 days, Table 1, read-out: IC50); 388 nM in the assay on H226 (H226 cells, incubated for 4 or 5 days, Table 1, read-out: IC50). The IC50 in the assay with H322 (H322 cells, incubated for 4 or 5 days, Table 1, read-out: IC50) is 8.2 nM; in the assay on RS4; 11 (RS4, 11 cells, incubated for 4 or 5 days, Table 1, read-out: IC50), 0.65 nM; in the assay on MV4; 11 (MV4, 11 cells, incubated for 4 or 5 days, Table 1, read-out: IC50) it was 6.9 nM; with Hut78 (Hut78 cells, incubated for 4 or 5 days, Table 1, read-out: IC50), 9.9 nM; in the assay with N87 (setting [1]) it was 9.9 nM; in the assay on Jurkat (Jurkat cells, incubated for 4 or 5 days, Table 1, read-out: IC50), 2.3 nM. For the same compound, the IC50 in the assay on Skov-3 (Skov-3 cells, incubated for 4 or 5 days, Table 1, read-out: IC50) stood at 9.8 nM; with Ramos (Ramos cells, incubated for 4 or 5 days, Table 1, read-out: IC50), 3.8 nM; in the assay on A431 (A431 cells, incubated for 4 or 5 days, Table 1, read-out: IC50), 7.7 nM; in the assay on MCF7 (MCF7 cells, incubated for 4 or 5 days, Table 1, read-out: IC50), 5.7 nM; in the assay with ASPC-1 (ASPC-1 cells, incubated for 4 or 5 days, Table 1, read-out: IC50), 29 nM.
For `CC[C@@]1(O)C(=O)OCc2c1cc1n(c2=O)Cc2c-1nc1cc(F)c(C)cc1c2C=NOCC(C)CNC(=O)CO` (mixture of isomers) [Compound B3, N-(3-((((E/Z)—((S)-4-Ethyl-8-fluoro-4-hydroxy-9-methyl-3,14-dioxo-3,4,12,14-tetrahydro-1H-pyrano[3′,4′:6,7]indolizino[1,2-b]quinolin-11-yl)methylene)amino)oxy)-2-methyl-propyl)-2-hydroxyacetamide], the IC50 came to 18 nM with KB (Homo sapiens, KB); 5.9 nM in the assay with A375 (Homo sapiens, A-375); 0.32 nM in the assay with Raji (Homo sapiens, Raji); 13 nM with HT29 (Homo sapiens, HT-29); 1.3 nM in the assay on T47D (Homo sapiens, T47D); 401 nM with H226 (Homo sapiens, NCI-H226). Besides, the IC50 is 3.9 nM in the assay with H322 (NCI-H322); 0.73 nM in the assay with RS4; 11 (Homo sapiens, RS4-11); 10 nM in the assay with MV4; 11 (Homo sapiens, MV4-11); 7 nM in the assay on Hut78 (Homo sapiens, HuT78); 7 nM in the assay with N87; 1.2 nM with Jurkat (Homo sapiens, Jurkat). Also, the IC50 is 3.4 nM with Skov-3 (Homo sapiens, SK-OV-3); 7.2 nM with Ramos (Homo sapiens, Ramos); 10 nM in the assay on A431 (Homo sapiens, A-431); 21 nM with MCF7 (Homo sapiens, MCF7); 25 nM in the assay on ASPC-1 (Homo sapiens, ASPC1).
Turning to `CC[C@@]1(O)C(=O)OCc2c1cc1n(c2=O)Cc2c-1nc1cc(F)c(C)cc1c2C=NOCCCNC(=O)CO` [Compound B2, (S,E/Z)—N-(3-((((4-ethyl-8-fluoro-4-hydroxy-9-methyl-3,14-dioxo-3,4,12,14-tetrahydro-1H-pyrano[3′,4′:6,7]indolizino[1,2-b]quinolin-11-yl)methylene)amino)oxy)propyl)-2-hydroxyacetamide], the concentration for half-maximal inhibition (IC50) in the assay with KB (Homo sapiens, KB cells, incubated for 4 or 5 days, Table 1, read-out: IC50) was 19 nM; in the assay with A375 (Homo sapiens, A-375, A375 cells, incubated for 4 or 5 days, Table 1, read-out: IC50), 6.9 nM; with Raji (Homo sapiens, Raji cells, incubated for 4 or 5 days, Table 1, read-out: IC50), 0.58 nM; in the assay with HT29 (Homo sapiens, HT-29, HT29 cells, incubated for 4 or 5 days, Table 1, read-out: IC50), 16 nM; in the assay on T47D (Homo sapiens, T47D cells, incubated for 4 or 5 days, Table 1, read-out: IC50) it was 2.4 nM; in the assay with H226 (Homo sapiens, NCI-H226, H226 cells, incubated for 4 or 5 days, Table 1, read-out: IC50), 113 nM. For the same compound, the IC50 in the assay with H322 (NCI-H322, H322 cells, incubated for 4 or 5 days, Table 1, read-out: IC50) came out at 12 nM; in the assay on RS4; 11 (Homo sapiens, RS4, 11 cells, incubated for 4 or 5 days, Table 1, read-out: IC50) it was 0.88 nM; in the assay with MV4; 11 (Homo sapiens, MV4, 11 cells, incubated for 4 or 5 days, Table 1, read-out: IC50), 14 nM; in the assay on Hut78 (Homo sapiens, Hut78 cells, incubated for 4 or 5 days, Table 1, read-out: IC50) it was 9.1 nM; in the assay on N87 (setting [1]) it was 9.1 nM; in the assay on Jurkat (Homo sapiens, Jurkat cells, incubated for 4 or 5 days, Table 1, read-out: IC50) it was 2.1 nM. The concentration for half-maximal inhibition (IC50) amounted to 11 nM in the assay on Skov-3 (Homo sapiens, SK-OV-3, Skov-3 cells, incubated for 4 or 5 days, Table 1, read-out: IC50); 6.6 nM in the assay on Ramos (Homo sapiens, Ramos cells, incubated for 4 or 5 days, Table 1, read-out: IC50); 9.8 nM with A431 (Homo sapiens, A-431, A431 cells, incubated for 4 or 5 days, Table 1, read-out: IC50); 9.2 nM in the assay with MCF7 (Homo sapiens, MCF7 cells, incubated for 4 or 5 days, Table 1, read-out: IC50); 40 nM in the assay on ASPC-1 (Homo sapiens, ASPC1, ASPC-1 cells, incubated for 4 or 5 days, Table 1, read-out: IC50).
As to `CC[C@@]1(O)C(=O)OCc2c1cc1n(c2=O)Cc2c-1nc1cc(F)c(C)cc1c2C=NOCCNC(=O)CO` [Compound B1, (S,E/Z)—N-(2-((((4-Ethyl-8-fluoro-4-hydroxy-9-methyl-3,14-dioxo-3,4,12,14-tetrahydro-1H-pyrano[3′,4′:6,7]indolizino[1,2-b]quinolin-11-yl)methylene)amino)oxy)ethyl)-2-hydroxyacetamide], the IC50 in the assay with KB (Homo sapiens, KB) was determined as 31 nM; in the assay with A375 (Homo sapiens, A-375), 9.4 nM; in the assay with Raji (Homo sapiens, Raji), 0.45 nM; with HT29 (Homo sapiens, HT-29), 28 nM; with T47D (Homo sapiens, T47D) it was 2.8 nM; with H226 (Homo sapiens, NCI-H226), 153 nM. The 50% inhibitory concentration (IC50) with H322 (NCI-H322) was determined as 12 nM; in the assay on RS4; 11 (Homo sapiens, RS4-11), 1.1 nM; in the assay on MV4; 11 (Homo sapiens, MV4-11), 18 nM; in the assay on Hut78 (Homo sapiens, HuT78) it was 11 nM; in the assay on N87, 11 nM; with Jurkat (Homo sapiens, Jurkat), 3 nM. Besides, the 50% inhibitory concentration (IC50) came to 9.8 nM in the assay with Skov-3 (Homo sapiens, SK-OV-3); 7.8 nM in the assay with Ramos (Homo sapiens, Ramos); 18 nM in the assay on A431 (Homo sapiens, A-431); 19 nM with MCF7 (Homo sapiens, MCF7); 54 nM in the assay on ASPC-1 (Homo sapiens, ASPC1).
